Earlier results in patent US20090162921A1 (priority 2005, published 2009).

System: mouse
Conditions: in vivo; for LD50: po

Row | Compound | LD50 (50% of the fatal dose in mouse) [mg/kg] | LD50
1 | C[As+](C)(C)CC(=O)[O-] [AB, arsenobetaine] | 10000 | 10000
2 | arsenic acid [As(V)] | 14 to 18 | 14 to 18 mg/kg
